System: skin dendritic cells
Assay: Flow cytometric analysis of Ahr−/− response to topical DBP

SMILES: CCCCOC(=O)c1ccccc1C(=O)OCCCC [DBP, dibutylphthalate]
- E/C (Ahr−/− mice): 6.375
- E/C (B6 mice): 5.97
- skin dendritic cell response in AhR−/− mice (topical application): no evidence for any impairment

— patent publication US20150307938A1, “METHOD TO IDENTIFY A NOVEL CLASS OF IMMUNOLOGIC ADJUVANTS” (Lancell, L.L.C., priority 2011, published 2015)
